# Patent publication US20110218211A1, “AZAINDOLE INHIBITORS OF IAP” (Genentech, Inc., priority 2008, published 2011)
# Columns and labels:
# [1] = molecular target: T1, cIAP1XBIR3 (Homo sapiens, UniProt Q13490, C308S/R332G/S292A); assay: Fluorescence polarization peptide binding assay, cIAP1XBIR3; details: 0.2 μM cIAP1XBIR3, 5 nM AVP-diPhe-FAM probe; for Ki: Ki determined from IC50
# T1 construct: made in house
# Experimental: (§1) Similar cIAP1-BIR3/XIAP-BIR3 and cIAP2-BIR3/XIAP-BIR3 chimeric proteins, cIAP1XBIR3 and cIAP2XBIR3, respectively, were engineered, expressed, and purified in a similar fashion to MLXBIR3SG. As with MLXBIR3SG, the amino acid sequences of these BIR domains retain the native cIAP peptide-binding sites.
# (§2) Polarization experiments were performed on an Analyst HT 96-384 (Molecular Devices Corp.) according to the procedure of Keating, S. M., Marsters, J, Beresini, M., Ladner, C., Zioncheck, K., Clark, K., Arellano, F., and Bodary, S. (2000) in Proceedings of SPIE: In Vitro Diagnostic Instrumentation (Cohn, G. E., Ed.) pp 128-137, Bellingham, Wash. Initial polarization experiments were performed in order to determine dissociation constants (Kd) between IAP protein BIR domains and fluorescent probes. Samples for fluorescence polarization affinity measurements were prepared by addition of serial dilutions of MLXBIR3SG, XIAP-BIR3, cIAP1XBIR3, or cIAP2XBIR3 in polarization buffer (50 mM Tris [pH 7.2], 120 mM NaCl, 1% bovine globulins, 5 mM DTT and 0.05% octylglucoside) to 5 nM 5-carboxyflourescein (5-FAM)-conjugated AVP-diphenylalanine-AKK (AVP-diPhe-FAM). The resulting reactions were incubated for 30 minutes at room temperature in 384-well black HE96 plates (Molecular Devices Corp.; Sunnyvale, Calif.) and fluorescence values were measured using standard filters for the fluorescein fluorophore (λex=485 nm, λem=530 nm). Fluorescence polarization values were plotted as a function of the protein concentration and the 50% effective concentration (EC50) values were obtained by fitting the data to a four-parameter equation using KaleidaGraph software (Synergy Software; Reading, Pa.). The apparent Kd values were determined from the EC50 values.
# (§3) Inhibition constants (Ki) for the antagonists were determined by addition of 0.06 μM MLXBIR3SG, 0.5 μM XIAP-BIR3, 0.2 μM cIAP1XBIR3 or 0.4 μM cIAP2XBIR3 to wells containing 1:3 serial dilutions of the antagonists, and 5 nM AVP-diPhe-FAM probe in the polarization buffer. After a 10 to 30-minute incubation period, the fluorescence value of each sample was measured. Fluorescence polarization values were plotted as a function of the antagonist concentration, and the 50% inhibitory concentration (IC50) values were determined by fitting the data to a four-parameter equation using KaleidaGraph software. The Ki values for the antagonists were determined from the IC50 values (Keating et al. 2000).
# [2] = molecular target: T2, cIAP2XBIR3 (Homo sapiens, UniProt Q13489, C294S/R318G/S278A); assay: Fluorescence polarization peptide binding assay, cIAP2XBIR3; details: 0.4 μM cIAP2XBIR3, 5 nM AVP-diPhe-FAM probe
# T2 construct: made in house
# Experimental: as §1
# Polarization experiments were performed on an Analyst HT 96-384 (Molecular Devices Corp.) according to the procedure of Keating, S. M., Marsters, J, Beresini, M., Ladner, C., Zioncheck, K., Clark, K., Arellano, F., and Bodary, S. (2000) in Proceedings of SPIE: In Vitro Diagnostic Instrumentation (Cohn, G. E., Ed.) pp 128-137, Bellingham, Wash. Initial polarization experiments were performed in order to determine dissociation constants (Kd) between IAP protein BIR domains and fluorescent probes. […] The resulting reactions were incubated for 30 minutes at room temperature in 384-well black HE96 plates (Molecular Devices Corp.; Sunnyvale, Calif.) and fluorescence values were measured using standard filters for the fluorescein fluorophore (λex=485 nm, λem=530 nm). […] The apparent Kd values were determined from the EC50 values. […]
# [3] = molecular target: T3, MLXBIR3SG (Homo sapiens, UniProt Q96CA5, S150G); assay: Fluorescence polarization peptide binding assay, MLXBIR3SG; details: 0.06 μM MLXBIR3SG, 5 nM AVP-diPhe-FAM probe; for Ki: Ki determined from IC50
# T3 sequence (Q96CA5 with tags, fused parts or gaps S150G): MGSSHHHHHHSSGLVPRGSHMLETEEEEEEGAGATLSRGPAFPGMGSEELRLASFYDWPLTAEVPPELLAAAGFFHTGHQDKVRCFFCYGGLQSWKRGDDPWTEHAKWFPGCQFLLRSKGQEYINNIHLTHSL
# Experimental: In the following experiments was used a chimeric BIR domain referred to as MLXBIR3SG in which 11 of 110 residues correspond to those found in XIAP-BIR3, while the remainder correspond to ML-IAP-BIR. […] The improved caspase-9 inhibition of the chimeric BIR domain MLXBIR3SG has been correlated with increased inhibition of doxorubicin-induced apoptosis when transfected into MCF7 cells.
# as §2, §3
# [4] = molecular target: T4, XIAP-BIR3 (Homo sapiens, UniProt P98170); assay: Fluorescence polarization peptide binding assay, XIAP-BIR3; details: 0.5 μM XIAP-BIR3, 5 nM AVP-diPhe-FAM probe; for Ki: Ki determined from IC50, read-out: XIAPBIR3 Ki; for IC50: read-out: XIAPBIR3 IC50
# T4 construct: serial dilutions of MLXBIR3SG, XIAP-BIR3, cIAP1XBIR3, or cIAP2XBIR3
# Experimental: as §2, §3
# T1 sequence (Q13490 with tags, fused parts or gaps S292A/C308S/R332G): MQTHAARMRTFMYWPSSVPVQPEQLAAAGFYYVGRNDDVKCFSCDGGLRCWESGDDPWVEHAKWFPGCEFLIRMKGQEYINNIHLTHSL
# T4 sequence (P98170 241-356 limits assumed): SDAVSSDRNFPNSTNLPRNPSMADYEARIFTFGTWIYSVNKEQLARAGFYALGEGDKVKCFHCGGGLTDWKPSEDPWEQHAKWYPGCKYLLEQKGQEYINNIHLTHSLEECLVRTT
# T2 sequence (Q13489 with tags, fused parts or gaps S278A/C294S/R318G): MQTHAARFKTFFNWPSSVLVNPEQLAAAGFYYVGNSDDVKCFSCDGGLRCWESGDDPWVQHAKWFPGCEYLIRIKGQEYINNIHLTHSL
Compound,IC50 [1] [nM],Ki [1] [nM],IC50 [2] [nM],Ki ([2]; Ki determined from IC50) [nM],IC50 [3] [nM],Ki [3] [nM],Ki [4] [nM],IC50 [4] [nM]
CN[C@@H](C)C(=O)N[C@H](C(=O)N1CCC[C@H]1c1cc2ccnc(-c3ccccc3)c2[nH]1)C1CCOCC1 [compound 1],461,71.3,502,109,158,36,90.5,508
CN[C@@H](C)C(=O)N[C@H](C(=O)N1CCC[C@H]1c1cc2ncnc(-c3ccccc3)c2[nH]1)C1CCOCC1 [compound 4],–,–,–,–,156,35.6,76.9,434
CN[C@@H](C)C(=O)N[C@H](C(=O)N1CCC[C@H]1c1cc2nc(C)nc(-c3ccccc3)c2[nH]1)C1CCOCC1 [compound 6],–,–,–,–,359,81.9,201,1130
CN[C@@H](C)C(=O)N[C@H](C(=O)N1CCC[C@H]1c1cc2ccnc(-c3ccc(F)cc3)c2[nH]1)C1CCOCC1 [compound 7],–,–,–,–,113,25.7,85.6,481
CN[C@@H](C)C(=O)N[C@H](C(=O)N1CCC[C@H]1c1cc2nc(C)nc(-c3ccc(F)cc3)c2[nH]1)C1CCOCC1 [compound 8],–,–,–,–,108,24.6,89,500
CN[C@@H](C)C(=O)N[C@H](C(=O)N1CCC[C@H]1c1cc2ccnc(-c3ccccc3Cl)c2[nH]1)C1CCOCC1 [compound 11],194,30.1,–,–,648,148,121,682

# The remaining compounds from weak to strong by IC50 [3], led by results:
IC50 [1] [nM],Ki [1] [nM],IC50 [2] [nM],Ki ([2]; Ki determined from IC50) [nM],IC50 [3] [nM],Ki [3] [nM],Ki [4] [nM],IC50 [4] [nM],Compound
–,–,–,–,144,32.9,64.4,–,CN[C@@H](C)C(=O)N[C@H](C(=O)N1CCC[C@H]1c1cc2ccnc(-c3ccccc3)c2[nH]1)c1ccccc1 [compound 12]
–,–,–,–,139,31.7,91.5,514,CN[C@@H](C)C(=O)N[C@H](C(=O)N1CCC[C@H]1c1cc2nc(C)nc(-c3ccccc3)c2[nH]1)C1CCCCC1 [compound 5]
–,–,–,–,131,29.8,79.2,445,CN[C@@H](C)C(=O)N[C@H](C(=O)N1CCC[C@H]1c1cc2ncnc(-c3ccccc3)c2[nH]1)C1CCCCC1 [compound 3]
–,–,–,–,99.3,22.6,102,574,CN[C@@H](C)C(=O)N[C@H](C(=O)N1CCC[C@H]1c1cc2ccnc(-c3ccc(F)cc3)c2[nH]1)C1CCCCC1 [compound 10]
–,–,–,–,91,20.7,63.8,–,CN[C@@H](C)C(=O)N[C@H](C(=O)N1CCC[C@H]1c1cc2ccnc(-c3ccccc3)c2[nH]1)C1CCCCC1 [compound 13]
–,–,–,–,62,14.1,64.9,364,CN[C@@H](C)C(=O)N[C@H](C(=O)N1CCC[C@H]1c1cc2nc(C)nc(-c3ccc(F)cc3)c2[nH]1)C1CCCCC1 [compound 9]
